Results reported in patent US4861785A (priority 1985, dated 1989).
Where a name gives a salt, the structure may show the parent alone.

Test system: KCN-induced lethality
Test: KCN Test in Rats (protection from KCN induced lethality)
Assay type: in vivo
Settings: Rattus norvegicus, sc; male Wistar rats, subcutaneous, one hour before KCN 5 mg/kg i.v.; survival after 2 minutes; read-out: ED50-values (protecting 50% of the tested animals against KCN-induced lethality)

Structure (SMILES)	ED50 [mg/kg]
C[C@@H]1CN(CCCCOc2ccccc2)CC[C@@H]1N(C)c1nc2ccccc2s1 (relative stereo) [Compound 75]	10
CN(c1nc2ccccc2o1)C1CCN(CC(O)C2COc3ccccc3O2)CC1 (single isomer, unassigned) [Compound 413, (A)-4-[(2-benzoxazolyl)methylamino]-α-(2,3-dihydro-1,4-benzodioxin-2-yl)-1-piperidineethanol]	5
CN(c1nc2ccccc2s1)C1CCN(CC(O)C2COc3ccccc3O2)CC1 (single isomer, unassigned) [Compound 415, (A)-4-[(2-benzothiazolyl)methylamino]-α-(2,3-dihydro-1,4-benzodioxin-2-yl)-1-piperidineethanol]	10
CN(c1nc2ccccc2s1)C1CCN(CCCCOc2cccc(Cl)c2)CC1.O=C(O)/C=C\C(=O)O [Compound 1, N-[1-[4-(3-chlorophenoxy)butyl]-4-piperidinyl]-N-methyl-2-benzothiazolamine (Z)-2-butenedioate (1:1)]	5
CN(c1nc2ccccc2s1)C1CCN(CCCOc2cccc(F)c2)CC1 [Compound 9]	2.5
CN(c1nc2ccccc2s1)C1CCN(CCCCOc2ccccc2)CC1 [Compound 10]	5
CN(c1nc2ccccc2s1)C1CCN(CCCCOc2ccc(F)cc2)CC1 [Compound 11]	1.25
CN(c1nc2ccccc2o1)C1CCN(CCCCOc2ccc(Cl)cc2)CC1 [Compound 15]	0.63
CN(c1nc2ccccc2s1)C1CCN(CCCOc2ccccc2F)CC1 [Compound 18]	5
COc1ccc(OCCCN2CCC(N(C)c3nc4ccccc4s3)CC2)cc1 [Compound 24]	5
COc1ccc(OCCCCN2CCC(N(C)c3nc4ccccc4s3)CC2)cc1 [Compound 31]	5
CN(c1nc2ccccc2s1)C1CCN(CCCCCOc2ccc(F)cc2)CC1 [Compound 32]	5
CN(c1nc2ccccc2s1)C1CCN(CCCCOc2ccc(Br)cc2)CC1 [Compound 42]	2.5
Cc1cccc(OCCCN2CCC(N(C)c3nc4ccccc4o3)CC2)c1 [Compound 48]	1.25
COc1ccccc1OCCCCCN1CCC(N(C)c2nc3ccccc3s2)CC1 [Compound 50]	2.5
CCCCN1CCC(N(C)c2nc3ccccc3o2)CC1 [Compound 103]	5
C(=Cc1ccccc1)CN1CCC(Nc2nc3ccccc3o2)CC1 [Compound 107]	2.5
CN(c1nc2ccccc2s1)C1CCN(CCCCCc2ccccc2)CC1 [Compound 108]	5
CN(c1nc2ccccc2s1)C1CCN(CCCCOc2ccc(F)cc2)C1 (stereo not shown) [Compound 118, N-[1-[4-(4-fluorophenoxy)butyl]-3-pyrrolidinyl]-N-methyl-2-benzothiazolamine dihydrochloride.monohydrate]	5
Cc1cccc(OCCCN2CCC(N(C)c3nc4ccccc4s3)C2)c1.O=C(O)C(=O)O (stereo not shown) [Compound 120, N-methyl-N-[1-[3-(3-methylphenoxy)propyl]-3-pyrrolidinyl]-2-benzothiazolamine ethanedioate(1:1)]	2.5
CN(c1nc2ccccc2s1)C1CCN(CCCOc2cccc(F)c2)C1.O=C(O)C(=O)O (stereo not shown) [Compound 121, N-[1-[3-(3-fluorophenoxy)propyl]-3-pyrrolidinyl]-N-methyl-2-benzothiazolamine ethanedioate(1:1)]	2.5
CCN(c1nc2ccccc2s1)C1CCN(CCCOc2ccc(C)cc2)CC1 [Compound 123, N-ethyl-N-[1-[3-(4-methylphenoxy)propyl]-4-piperidinyl]-2-benzothiazolamine]	5

Structure (SMILES)	ED50 [mg/kg]
CN(c1nc2ccccc2s1)C1CCN(CC=Cc2ccccc2)CC1 [Compound 133]	5
CN(c1nc2ccccc2s1)C1CCN(CCCOc2ccc(F)cc2)CC1 [Compound 146]	5
CN(c1nc2ccccc2s1)C1CCN(CCCOc2ccc3ccccc3c2)CC1 [Compound 148]	5
CN(c1nc2ccccc2s1)C1CCN(CCCOc2ccc([N+](=O)[O-])cc2)CC1 [Compound 151]	5
CN(c1nc2ccccc2s1)C1CCN(CCCCCOc2cccc(Cl)c2)CC1 [Compound 191]	2.5
CN(c1nc2ccccc2o1)C1CCN(CCCOc2cccc(F)c2)CC1 [Compound 195]	1.25
CN(c1nc2ccccc2o1)C1CCN(C2CCCCC2)CC1 [Compound 309]	5
CN(c1nc2ccccc2s1)C1CCN(CC(O)COc2ccc(F)cc2)CC1 (stereo not drawn) [Compound 320, 4-[(2-benzothiazolyl)methylamino]-α-[(4-fluorophenoxy)methyl]-1-piperidineethanol monohydrochloride]	1.8
CN(c1nc2ccccc2o1)C1CCN(CC(O)COc2ccccc2)CC1 (stereo not shown) [Compound 322]	5
CN(c1nc2ccccc2o1)C1CCN(CC(O)COc2ccc(F)cc2)CC1 (stereo not shown) [Compound 323]	1.25
CN(c1nc2ccccc2o1)C1CCN(CC(O)COc2ccc(Cl)cc2)CC1 (stereo not shown) [Compound 324]	2.5
CCN(c1nc2ccccc2s1)C1CCN(CC(O)COc2ccc(Cl)cc2)CC1 (stereo not shown) [Compound 357]	0.63
CN(c1nc2ccccc2s1)C1CCN(CC(O)COc2ccc(F)cc2)C1 (stereo not drawn) [Compound 405, 3-[(2-benzothiazolyl)methylamino]-α-[(4-fluorophenoxy)methyl]-1-pyrrolidineethanol 4-methylbenzenesulfonate(1:2)]	10
CN(c1nc2ccccc2s1)C1CCN(C[C@@H](O)COc2ccc(F)cc2)CC1 [Compound 410, (+)-(R)-4-[(2-benzothiazolyl)methylamino]-α-[(4-fluorophenoxy)methyl]-1-piperidineethanol dihydrochloride]	5
CN(c1nc2ccccc2s1)C1CCN(C[C@H](O)COc2ccc(F)cc2)CC1 [Compound 411, (-)-(S)-4-[(2-benzothiazolyl)methylamino]-α-[(4-fluorophenoxy)methyl]-1-piperidineethanol dihydrochloride]	5
CN(c1nc2ccccc2s1)C1CCN(CC(O)C2CCc3ccccc3O2)CC1 (stereo not drawn) [Compound 438, (A^-)-4-[(2-benzothiazolyl)methylamino]-α-(3,4-dihydro-2H-1-benzopyran-2-yl)-1-piperidineethanol]	10
CN(c1nc2ccccc2s1)C1CCN(CC(O)CSc2ccccc2)CC1 (stereo not drawn) [Compound 440, 4-[(2-benzothiazolyl)methylamino]-α-[(phenylthio)methyl]-1-piperidineethanol (Z)-2-butenedioate(1:1)]	10
CN(c1nc2ccccc2s1)C1CCN(CC(O)CSc2ccc(F)cc2)CC1 (stereo not drawn) [Compound 442, 4-[(2-benzothiazolyl)methylamino]-α-[[(4-fluorophenyl)thio]methyl]-1-piperdineethanol (Z)-2-butenedioate(1:1)]	2.5
CN(c1nc2ccccc2s1)C1CCN(CC(O)CSc2ccc(Cl)cc2)CC1 (stereo not drawn) [Compound 443, 4-[(2-benzothiazolyl)methylamino]-α-[[(4-chlorophenyl)thio]methyl]-1-piperidineethanol (Z)-2-butenedioate(1:1)]	10
CN(c1nc2ccccc2o1)C1CCN(CC(O)CSc2ccccc2)CC1 (stereo not drawn) [Compound 446, 4-[(2-benzoxazolyl)methylamino]-α-[(phenylthio)methyl]-1-piperidineethanol (E)-2-butenedioate(2:1)]	10
CN(c1nc2ccccc2o1)C1CCN(CCc2ccccn2)CC1 [Compound 452, N-methyl-N-[1-[2-(2-pyridinyl)ethyl]-4-piperidinyl]-2-benzoxazolamine]	5
